Tested on: AMPA receptors
Experiment: AMPA ES cell FLIPR screen (AMPA Potentiator Assay)
Type: cell-based
Details: murine ES cell-derived neurons, FLIPR Fluo-4 calcium signal, 32 uM AMPA challenge; values marked * are the geometric mean of 2-9 EC50 determinations
Procedure: The murine ES cell line used was E14-Sx1-16C, which has a targeted mutation in the Sox1 gene, a neuroectodermal marker, that offers G418 resistance when the Sox1 gene is expressed (Stem Cell Sciences). ES cells were maintained undifferentiated as previously described (Roach). […] ES cells were plated on gelatin-coated dishes (BD Biosciences), the media was changed daily and the cells were dissociated with 0.05% Trypsin EDTA (Invitrogen) every other day.
Embryoid Body Formation: Prior to embryoid body (EB) formation the ES cells were weaned from FBS onto Knockout Serum Replacement (KSR) (Invitrogen). To form EBs, ES cells were dissociated into a single cell suspension, then 3×10^6 cells were plated in bacteriology dishes (Nunc 4014) and grown as a suspension culture in NeuroEB-I medium that consisted of Knockout™ D-MEM (Invitrogen), supplemented with 10% KSR (Invitrogen), 0.2 mM L-Glutamine (Invitrogen), 0.1 mM MEM non-essential amino acids (Invitrogen), 30 μg/ml Gentamicin (Invitrogen), 1000 u/ml ESGRO (Chemicon), 0.1 mM 2-Mercaptoethanl (Sigma) and 150 ng/ml Transferrin (Invitrogen). The plates were put on a Stovall Belly Button shaker in an atmospheric oxygen incubator. The media was changed on day 2 of EB formation with NeuroEB-I and on day 4 with NeuroEB-II (NeuroEB-I plus 1 μg/ml mNoggin [R&D Systems]).
Neuronal Precursor Selection and Expansion: On day 5 of EB formation, EBs were dissociated with 0.05% Trypsin EDTA, and 4×10^6cells/100 mm dish were plated on Laminin coated tissue culture dishes in Neuroll-G418 medium that consisted of a base medium of a 1:1 mixture of D-MEM/F12 supplemented with N2 supplements and NeuroBasal Medium supplemented with B27 supplement and 0.1 mM L-Glutamine (all from Invitrogen). The base medium was then supplemented with 10 ng/ml bFGF (Invitrogen), 1 μg/ml mNoggin, 500 ng/ml SHH—N, 100 ng/ml FGF-8b (R&D Systems), 1 μg/ml Laminin and 200 μg/ml G418 (Invitrogen) for selection of neuronal precursors expressing Sox-1. The plates were put in an incubator that contained 2% Oxygen and were maintained in these conditions. During the 6-day selection period, the Neuroll media was changed daily. On day 6, the surviving neuronal precursor foci were dissociated with 0.05% Trypsin EDTA and the cells were plated at a density of 1.5×10^6 cells/100 mm Laminin coated dish in Neuroll-G418 medium. The cells were dissociated every other day for expansion, and prepared for Cryopreservation at passage 3 or 4. The crypreservation medium contained 50% KSR, 10% Dimethyl Sulfoxide (DMSO) (Sigma) and 40% Neurol-G418I medium. Neuronal precursors were crypreserved at a concentration of 4×10^6 cells/ml and 1 ml/cryovial in a controlled rate freezer overnight then transferred to an ultra-low freezer or liquid nitrogen for long-term storage.
Neuronal Differentiation: Cryopreserved ES cell-derived neuronal precursors were thawed by the rapid thaw method in a 37-degree water-bath. The cells were transferred from the cryovial to a 100 mm Laminin coated tissue culture dish that already contained Neuroll-G418 that had been equilibrated in a 2% Oxygen incubator. The media was changed with fresh Neuroll-G418 the next day. The cells were dissociated every other day as described above for expansion to generate enough cells to plate for the screen. For the screen, the cells were plated into 384-well poly-d-lysine coated tissue culture dishes (BD Biosciences) by the automated SelecT at a cell density of 6K cells/well in differentiation medium Neurolll that contained a 4:1 ratio of the NeuroBasalMedium/B27:D-MEM/F12/N2 supplemented with 1 μM cAMP (Sigma), 200 μM Ascorbic Acid (Sigma), 1 μg/ml Laminin (Invitrogen) and 10 ng/ml BDNF (R&D Systems). The plates were put in an incubator with 2% Oxygen and allowed to complete the differentiation process for 7 days. The cells could then be used over a 5-day period for the high throughput screen.
On the day of the assay, the FLIPR assay may be performed using the following methods: […]

| EC50 [nM] | Compound |
| --- | --- |
| 1840 | CC(C)S(=O)(=O)N[C@H]1COCC[C@@H]1c1ccc(-c2ccccc2)cc1 [Example 16, N-[(3R,4R)-4-biphenyl-4-yltetrahydro-2H-pyran-3-yl]propane-2-sulfonamide] |
| > 31600 | CC(C)S(=O)(=O)N[C@H]1CCC(=O)N[C@@H]1c1ccc(-c2ccccc2)cc1 [Example 11, N-[(2R,3S)-2-biphenyl-4-yl-6-oxopiperidin-3-yl]propane-2-sulfonamide] |
